Values of other authors, collected in patent publication US20080009448A1, “Peptide Derivative” (priority 2006, published 2008).
Non-standard residues stand in square brackets, D forms with d. No end group written: not given here. βAla = NCCC(=O)O

Conditions: non-patent references 2-7, cited from earlier work

Row | Substance | anti-nociceptive activity compared with morphine on oral administration | anti-nociceptive activity compared with morphine on subcutaneous administration
1 | Y[dR]F[βAla] [TAPA] | almost equal | nine times stronger
2 | Nα-amidine-[Tyr]-[D-Arg]-[Phe]-[N-Methyl-β-Ala]-OH [ADAMB] | about 3.8 times | about 23 times
